Results on two compounds are retold here after paper PMC6474902, “Examination of novel 4-aminoquinoline derivatives designed and synthesized by a hybrid pharmacophore approach to enhance their anticancer activities” (Scientific Reports, 2019).

One experiment has as its system MCF10A. In words: SRB antiproliferative/antigrowth assay, non-cancer cells. The experiment is classed as cell-based, human. The settings on record: Homo sapiens, MCF-10A, 48 h, read-out: GI50 MCF10A. The procedure, abridged: (§1)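 Cells seeded 24 h before exposure to seven concentrations (100 µM to 0.0064 µM) for 48 h at 37 °C. Growth by TCA fixation and SRB staining, absorbance 515–564 nm, relative to time-zero and untreated controls; GI50 from variable-slope sigmoidal fit, reported as greater/less than range limits when not reached.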

The test system of another experiment is 184B5. The description is as above. The experiment is classed as cell-based, human. The settings on record: Homo sapiens, 184B5, 48 h, read-out: GI50 184B5. The procedure, abridged: as §1
Another experiment relates to MDA-MB468. Description: SRB antiproliferative/antigrowth assay. The format is cell-based, human. As to conditions: Homo sapiens, MDA-MB-468, 48 h, read-out: GI50 MB468. The procedure, abridged:
as §1

A further experiment has as its system MDA-MB231. Description: SRB antiproliferative/antigrowth assay. The experiment is classed as cell-based, human. The settings on record: Homo sapiens, MDA-MB-231, 48 h, read-out: GI50 MB231. The procedure, abridged: as §1
In the next experiment the test system is MCF7. Description: SRB antiproliferative/antigrowth assay. The experiment is classed as cell-based, human. In outline: as §1
Another experiment concerns lysosomal volume. The arrangement: method as in PMID 16137197. As to conditions: cited from earlier work.
A further experiment has as its system HeLa cells. In words: Sequential treatment with monastrol and compound 13, DNA content. The experiment is classed as cell-based, human. As to conditions: 100 μM monastrol, 18 h. As for the experimental part: 0 h 2 h post-monastrol 4 h post-monastrol 6 h post-monastrol […]
death. HeLa cells, treated with 100 μM of monastrol for 18 h (defined 0 h), were released into complete medium in the absence (sham) or presence of 10 μM compound 13 (VR23). Note that monastrol arrested cells […]

Each structure is given as a SMILES string. Where two headings read alike, the source gives them in different places.

`CCN(CC)CCCC(C)Nc1ccnc2cc(Cl)ccc12` (centres unmarked) [Chloroquine, reference compound]: the GI50 was 81.3 ± 1.3 µM in the experiment on MCF10A; 76.1 ± 1.1 µM with 184B5; 28.6 ± 1.3 µM in the experiment with MDA-MB468; 22.5 ± 1.4 µM with MDA-MB231; 38.4 µM in the experiment on MCF7 (Homo sapiens, MCF7, 48 h, read-out: GI50 MCF7, SRB, 48 h post-treatment, mean of triplicates of at least two experiments); 38.4 ± 1.2 µM with MCF7 (read-out: GI50 MCF7, SRB, 48 h post-treatment, mean of triplicates of at least two experiments). Besides, in the experiment on lysosomal volume, the lysosomal volume result is on record as “causes an increase in lysosomal volume”.
Turning to `CCOC(=O)C1=C(C)NC(=S)NC1c1cccc(O)c1` (centres unmarked) [monastrol], in the experiment on HeLa cells, the cell cycle arrest entry is “arrested cells at G2/M”.
